In patent US4548938A, “5-H-1,3,4-thiadiazolo[3,2-a]pyrimidin-5-one compounds” (Janssen Pharmaceutica N.V., priority 1985, dated 1985):
Like-named read-outs stand apart in the source and are kept apart here.

Assays:
[1] = test system: compound 48/80-induced gastric lesions; conditions: rats treated with compound 48/80; known serotonin antagonists; cited from earlier work
[2] = test system: apomorphine-induced phenomena: agitation and stereotypic chewing; experiment: apomorphine (APO) test in rats, part of the combined APO-TRY-NOR test; assay type: in vivo, male Wistar rats; conditions: Rattus norvegicus, sc, 0.5 h, read-out: ED50 (APO)-rat
[3] = test system: tryptamine-induced bilateral tonic seizures; experiment: tryptamine (TRY) test in rats, part of the combined APO-TRY-NOR test; assay type: in vivo, male Wistar rats; conditions: Rattus norvegicus, sc, 1.5 h, tryptamine 40 mg/kg i.v. at 90 min
[4] = test system: norepinephrine-induced mortality; experiment: norepinephrine (NOR) test in rats, part of the combined APO-TRY-NOR test; assay type: in vivo, male Wistar rats; conditions: Rattus norvegicus, sc, 2 h, norepinephrine 1.25 mg/kg i.v. at 120 min
Experimental: THE COMBINED APOMORPHINE (APO)-, TRYPTAMINE (TRY)- AND NOREPINEPHRINE (NOR) TEST IN RATS
The experimental animals used in this test were adult male Wistar rats (weight 240±10 g). After an overnight fast, the animals were treated subcutaneously (1 ml/100 g) with an aqueous solution of the compound under investigation (time=zero) and put in isolated observation cages. […] At the end of this 1 hour period (time=90 minutes) the same animals were injected intravenously with 40 mg/kg of tryptamine (TRY) and the presence of the typical tryptamine-induced bilateral tonic seizures was noted. Two hours after pretreatment (time=120 minutes) finally, the same animals were challenged with 1.25 mg/kg intravenously of norepinephrine (NOR) and possible mortality was looked for up to 60 minutes later.
The table 1 gives the ED50 -values of a number of the compounds under consideration. As used herein, the ED50 -value represents the dose which protects 50% of the animals from apomorphine-, tryptamine- or norepinephrine-induced phenomena.

[5] = test system: apomorphine-induced emesis; experiment: apomorphine test in dogs (APO-dog); assay type: in vivo; conditions: Canis lupus familiaris, sc; beagle dogs; apomorphine 0.31 mg/kg s.c. 1 hour after compound; protection from emesis
[6] = test system: compound 48/80-induced gastric lesions; experiment: gastric lesion test: lesions induced by compound 48/80; assay type: in vivo; conditions: Rattus norvegicus; rats; compound 48/80; distension of the stomach completely absent in 50% of rats; read-out: gastric lesion test ED50
[7] = test system: serotonin-induced contraction of rat caudal artery; experiment: antagonistic activity on the effect of serotonin on the caudal artery of the rat; conditions: serotonin 40 ng/ml; minimal concentration reducing contraction amplitude to at least 50% of normal; 5 min
Experimental: ANTAGONISTIC ACTIVITY ON THE EFFECT OF SEROTONIN ON THE CAUDAL ARTERY OF THE RAT
Caudal arteries from fasted male rats (210-235 g) were used in the test. Two helical strips having a length of 5-6 cm and a width of 2 mm. were obtained from each artery and mounted vertically in a 100 ml organ bath containing an oxygenated Krebs-Henseleit solution. Submaximal contractions of the arterial strips were produced by adding single doses of serotonin (40 ng/ml) to the organ bath for 2 minutes with each time an interval of 10 minutes. The amplitude of the contraction was measured before and 5 minutes after adding the drug. After washing out, the agonist was added again three times in order to see whether the contraction was restored and normalized.

[8] = test system: compound 48/80-induced lethality; experiment: protection of rats from compound 48/80-induced lethality; assay type: in vivo, male Wistar rats; conditions: Rattus norvegicus, sc, 4 h, s.c., compound 48/80 0.5 mg/kg i.v. 1 hour after treatment, 50% protected against lethality, read-out: 48/80-test ED50
From the text: PROTECTION OF RATS FROM COMPOUND 48/80-INDUCED LETHALITY
Compound 48/80, a mixture of oligomers obtained by condensation of 4-methoxy-N-methyl-phenethylamine and formaldehyde has been described as a potent histamine releasing agent (Int. Arch. Allergy, 13, 336 (1958)). The protection from compound 48/80-induced lethal circulatory collapse appears to be a simple way of evaluating quantitatively the antihistaminic activity of test-compounds. Male rats of an inbred Wistar strain, weighing 240-260 g were used in the experiment. After overnight starvation the rats were transferred to conditioned laboratories (temp.=21±1° C., relative humidity=65±5%). The rats were treated subcutaneously or orally with a test compound or with the solvent (NaCl solution, 0.9%). One hour after treatment there was injected intravenously compound 48/80, freshly dissolved in water, at a dose of 0.5 mg/kg (0.2 ml/100 g of body weight). In control experiments, wherein 250 solvent-treated animals were injected with the standard dose of compound 48/80 not more than 2.8% of the animals survived after 4 hours, is therefore considered to be a safe criterion of a protective effect of drug administration.
In this connection the ED50 -values are the minimal doses of the concerned compounds, administered in the subcutaneous way, whereby 50% of the rats are protected against compound 48/80-induced lethality.

[9] = s.c., rats, apomorphine 1.25 mg/kg i.v. 30 min after compound

Row | Structure (SMILES) | prevention of cyanosis of ears and extremities, lesions in the glandular area of the stomach and abnormal gastric distension [1] | ED50 [3] [mg/kg] | ED50 [4] [mg/kg] | ED50 [5] [mg/kg] | ED50 [6] [mg/kg] | caudal artery rat ED50 [7] [ng/mL] | ED50 [8] [mg/kg] | further results
1 | CN(C)CCCSc1ccccc1NC(=O)/C=C/c1ccccc1 [cinanserin] | prevent completely | – | – | – | – | – | – | –
2 | Cc1nc2sccn2c(=O)c1CCN1CCC(c2c[nH]c3ccccc23)CC1 [compound 12, 6-[2-[4-(1H-indol-3-yl)-1-piperidinyl]ethyl]-7-methyl-5H-thiazolo[3,2-a]pyrimidin-5-one] | – | 0.08 | 0.31 | 0.08 | 0.08 | 0.08 | 0.02 | ED50 [2, 9]: 0.08 mg/kg
3 | Cc1nc2sc3c(n2c(=O)c1CCN1CCC(c2c[nH]c4ccccc24)CC1)CCC3 [compound 17, 7,8-dihydro-3-[2-[4-(1H-indol-3-yl)-1-piperidinyl]ethyl]-2-methyl-4H,6H-cyclopenta[4,5]thiazolo[3,2-a]-pyrimidin-4-one] | – | 0.16 | 0.31 | 0.03 | 0.31 | 0.31 | 0.08 | ED50 [2, 9]: 0.63 mg/kg
4 | Cc1nc2sccn2c(=O)c1CCN1CCC(c2c[nH]c3ccc(F)cc23)CC1 [compound 22, 6-[2-[4-(5-fluoro-1H-indol-3-yl)-1-piperidinyl]ethyl]-7-methyl-5H-thiazolo[3,2-a]pyrimidin-5-one] | – | 0.31 | 1.25 | 0.12 | 0.08 | 1.25 | 1.25 | ED50 [2]: 1.25 mg/kg
5 | Cc1nc2sc(C)c(C)n2c(=O)c1CCN1CCC(c2c[nH]c3ccccc23)CC1 [compound 25, 6-[2-[4-(1H-indol-3-yl)-1-piperidinyl]ethyl]-2,3,7-trimethyl-5H-thiazolo[3,2-a]pyrimidin-5-one] | – | 0.16 | 0.63 | 0.015 | 0.16 | 0.32 | 0.04 | ED50 [2, 9]: 0.31 mg/kg
6 | CN1CCC(=C2c3ccccc3C=Cc3ccccc32)CC1 [cyproheptadine] | prevent completely | – | – | – | – | – | – | –
7 | CN1C[C@H](CNC(=O)OCc2ccccc2)C[C@@H]2c3cccc4c3c(cn4C)C[C@H]21 [metergoline] | prevent completely | – | – | – | – | – | – | –
8 | CC[C@@H](CO)NC(=O)[C@@H]1C=C2c3cccc4c3c(cn4C)C[C@H]2N(C)C1 [methysergide] | prevent completely | – | – | – | – | – | – | –
9 | CN1CCN2c3ccccc3Cc3ccccc3C2C1 (stereo not drawn) [mianserin] | prevent completely | – | – | – | – | – | – | –
10 | NC(=O)C1(N2CCCCC2)CCN(CCCC(=O)c2ccc(F)cc2)CC1 [pipamperone] | prevent completely | – | – | – | – | – | – | –
11 | CN1CCC(=C2c3ccccc3CCc3sccc32)CC1 [pizotifen] | prevent completely | – | – | – | – | – | – | –
12 | O=C(CCCN1CCC2(CC1)C(=O)NCN2c1ccccc1)c1ccc(F)cc1 [spiperone] | prevent completely | – | – | – | – | – | – | –
